Source: paper PMC10610379, “Epidrugs as Promising Tools to Eliminate Plasmodium falciparum Artemisinin-Resistant and Quiescent Parasites” (Pharmaceutics, 2023)
Read-outs that look alike come from different tables or passages of the source.

What was measured:
Assay type in all cases: cell-based
[1] = tested on: Plasmodium falciparum F32-TEM (artemisinin-sensitive twin line); assay: Standard chemosensitivity assay (SYBR Green I), F32-TEM; conditions: Plasmodium falciparum, read-out: Antiplasmodial Activity: IC50, F32-TEM
Description: (§1) They differ by eight mutations in seven genes (PF3D7_0110400, PF3D7_1343700, PF3D7_0213400, PF3D7_1115700, PF3D7_1302100, PF3D7_1459600, PF3D7_1464500) among them the M476I mutation on the kelch13 gene. F32-ART and F32-TEM strains have RSA^0–3 h values up to 12% and less than 0.1%, respectively. […] Both strains were cultured, in the same conditions, according to the Trager and Jensen protocol with modifications. Briefly, parasites were cultivated in RPMI-1640 medium (Biowest) at 2% hematocrit in human red blood cells and 5% human serum (EFS, French Blood Bank) under 5% CO2 in a humid atmosphere at 37 °C.
(§2) The antimalarial activities of the compounds were evaluated on both strains. […] Antimalarial activities were determined with the SYBR Green I method. Each drug concentration was tested in triplicate. The parasites were incubated with the drugs for 48 h. Plates were read on a BioTek FLX800 Microplate Fluorescence Reader (Bio-Tek instruments, Winooski, VT, USA) (λexcitation = 485 nm, λemission = 528 nm). Control parasite culture (i.e., RPMI with 0.5% DMSO) was referred to as 100% growth. IC50 and IC90 values were determined using GraphPad Prism version 7.05 (GraphPad Software, San Diego, CA, USA). Results were the mean of 3 independent experiments. When it is relevant, statistical significance between results obtained with both parasite strains was determined by a Mann–Whitney test using GraphPad Prism version 7.05.

[2] = tested on: Plasmodium falciparum F32-ART (artemisinin-resistant strain); assay: Standard chemosensitivity assay (SYBR Green I), F32-ART; conditions: for IC50: Plasmodium falciparum, read-out: Antiplasmodial Activity: IC50, F32-ART; for Selectivity Index CC50/IC50: ratio cytotoxicity (mammalian cell type of the CC50)/antiplasmodial activity on F32-ART
Description: as §1, §2

[3] = Cytotoxicity evaluation by MTT assay; conditions: monkey, Vero cells, * mean of 2 experiments
Description: The cytotoxicity of all newly synthesized compounds was evaluated on the Vero cell lines (isolated from monkey kidney cells, gift from the Faculty of Pharmacy, Toulouse, France) by MTT assay according to Mosmann with slight modifications. Briefly, cells in MEM medium supplemented with 10% fetal calf serum, 2 mM L-glutamine, antibiotics (100 U/mL penicillin and 100 µg/mL streptomycin), and NEAA 1X, were seeded in 96-well plates. After a 24-h incubation at 37 °C and 5% CO2 in a humidified atmosphere, compounds were added with concentrations ranging from 5 nM to 50 μM in duplicate. […] The security index was calculated as the ratio of cytotoxicity/antiplasmodial activity.

[4] = F32-TEM, 48 h incubation, SYBR Green I, mean ± SEM of 3 experiments (* mean of 2)
[5] = F32-ART, 48 h incubation, SYBR Green I, mean ± SEM of 3 experiments (* mean of 2)

O=C1c2ccccc2O[C@H](c2ccccc2[N+](=O)[O-])[C@@]1(Cl)[N+](=O)[O-] (relative stereo) [Flv69]
IC50 [1, 4]: > 10 µM
IC50 [2, 5]: > 10 µM
CC50 [3]: > 50 µM

C[C@]1([N+](=O)[O-])C(=O)c2ccccc2O[C@@H]1c1ccccc1[N+](=O)[O-] (relative stereo) [MLo1302]
IC50 [1, 4]: 8 µM
IC50 [2, 5]: 7 µM
Selectivity Index CC50/IC50 [2]: 0.9
CC50 [3]: 6.5 µM

O=C1c2ccccc2O[C@H](c2ccccc2)[C@]1(F)[N+](=O)[O-] (relative stereo) [MLo1401]
IC50 [1, 4]: > 10 µM
IC50 [2, 5]: > 10 µM
Selectivity Index CC50/IC50 [2]: <2
CC50 [3]: 20 µM

O=C1c2ccccc2O[C@H](c2ccccc2[N+](=O)[O-])[C@@]1(Br)[N+](=O)[O-] (relative stereo) [MLo1507]
IC50 [1, 4]: > 10 µM
IC50 [2, 5]: > 10 µM
Selectivity Index CC50/IC50 [2]: <4
CC50 [3]: 40 µM

O=C1c2ccccc2O[C@H](c2ccccc2F)[C@@]1(Br)[N+](=O)[O-] (relative stereo) [MLo1509]
IC50 [1, 4]: > 10 µM
IC50 [2, 5]: > 10 µM
CC50 [3]: > 50 µM

Cc1sc2c(c1C)C(c1ccc(Cl)cc1)=N[C@@H](CC(=O)OC(C)(C)C)c1nnc(C)n1-2 [(+)-JQ-1]
IC50 [1, 4]: > 10 µM
IC50 [2, 5]: > 10 µM
Selectivity Index CC50/IC50 [2]: <0.02
CC50 [3]: 0.2 µM

Cc1noc(C)c1-c1ccc2c(c1)nc(CCc1ccc(O)cc1)n2CCN1CCOCC1 [AKE-040]
IC50 [1, 4]: > 10 µM
IC50 [2, 5]: > 10 µM
Selectivity Index CC50/IC50 [2]: <2.4
CC50 [3]: 24 µM

CC1=NN(C2CCC(C(=O)O)CC2)C(=O)C1=Cc1ccc(-c2cc(C)c(C)cc2[N+](=O)[O-])o1 (centres unmarked) [C646]
IC50 ([1]; F32, 48 h): > 10 µM
IC50 ([2]; F32, 48 h): > 10 µM

COc1ccc([N+](=O)[O-])c(C2Oc3ccccc3C(=O)C2(Cl)[N+](=O)[O-])c1 (centres unmarked) [Flv880]
IC50 [1, 4]: > 10 µM
IC50 [2, 5]: > 10 µM
CC50 [3]: > 50 µM

O=C1c2ccccc2OC(c2ccccc2)C1[N+](=O)[O-] (centres unmarked) [MLo1406]
IC50 [1, 4]: > 10 µM
IC50 [2, 5]: > 10 µM
CC50 [3]: > 50 µM

O=C1c2ccccc2OC(c2ccccc2)C1(Br)[N+](=O)[O-] (centres unmarked) [MLo1502]
IC50 [1, 4]: > 10 µM
IC50 [2, 5]: > 10 µM
CC50 [3]: > 50 µM

COc1ccc([N+](=O)[O-])c(C2Oc3ccccc3C(=O)C2(Br)[N+](=O)[O-])c1 (centres unmarked) [MLo1508]
IC50 [1, 4]: > 10 µM
IC50 [2, 5]: > 10 µM
Selectivity Index CC50/IC50 [2]: <3.6
CC50 [3]: 36 µM

COc1cccc(C2Oc3ccccc3C(=O)C2(Cl)[N+](=O)[O-])c1 (centres unmarked) [NFlav2018]
IC50 [1, 4]: > 10 µM
IC50 [2, 5]: > 10 µM
CC50 [3]: > 50 µM

Cc1sc2c(c1C)C(c1ccc(Cl)cc1)=N[C@@H](CC(=O)NCC13CC4CC(CC(C4)C1)C3)c1nnc(C)n1-2 [SHH-878-1]
IC50 [1, 4]: 10 µM
IC50 [2, 5]: 10 µM
Selectivity Index CC50/IC50 [2]: 0.3
CC50 [3]: 3 µM

C[C@@H]1CC[C@H]2[C@@H](C)C(=O)O[C@@H]3O[C@@]4(C)CC[C@@H]1[C@]32OO4 [artemisinin, Artemisinin]
IC50 [1, 4]: 0.013 ± 0.003 µM
CC50 [3]: > 100 µM
